Measured values from patent US6914045B2, “Glycopeptide antibiotics” (Wyeth Holdings Corporation, priority 2001, dated 2005).
≈ marks a conversion by molar mass, not a printed value. Where two headings read alike, the source gives them in different places. Numbered stars: 1 amine (or outer) side, 2 acyl side, 3 side chain; on linkers, the order of the positions; unused ones are H or OH. Square brackets hold non-standard residues; d marks the D form. Peptide text beside a SMILES is read from it. X5 = N=C1NCC(C(O)[C@@H](N[*:1])C(=O)[*:2])N1; X4 = N=C1NCC(C(O)[C@H](N[*:1])C(=O)[*:2])N1; Cha = N[C@@H](CC1CCCCC1)C(=O)O; dCha = N[C@H](CC1CCCCC1)C(=O)O

How the values were obtained:
Assay in all cases: in vitro antibacterial evaluation, MIC by broth dilution
Type in all cases: cell-based
Enterococcus sp. = settings: broth dilution, 18 hours at 35° C.
Method: (§1) Methods for in vitro Antibacterial Evaluation (Table 1)
(§2) The minimum inhibitory concentration (MIC), the lowest concentration of the antibiotic which inhibits growth of the test organism, is determined by the broth dilution method using Muller-Hinton II […] (Baltimore Biological Laboratories) following the recommendations of the National Committee for Clinical Laboratory Standards [Methods for dilution antimicrobial susceptibility tests for bacteria that grow aerobically, approved standard M7-A2, National Committee for Clinical Laboratory Standards, Villanova, Pa.].
(§3) An inoculum level of 5×10^5 CFU/mL, and a range of antibiotic concentrations (64-0.06 μg/mL) is used. […] The test organisms include a spectrum of Gram-positive bacteria comprised of Staphylococcus sp., Streptococcus sp. and Enterococcus sp. These organisms include recent clinical isolates that are resistant to methicillin, penicillin and/or vancomycin.

Staphylococcus sp. = settings: broth dilution, 18 hours at 35° C.
Method: as §1, §2, §3

Streptococcus sp. = settings: broth dilution, 18 hours at 35° C.
Method: as §1, §2, §3

Escherichia coli = settings: 18 hours at 35° C.
Outline: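 Broth dilution MIC per NCCLS M7-A2 in Mueller-Hinton II medium, inoculum 5×10^5 CFU/mL, antibiotic range 64-0.06 μg/mL. MIC taken as lowest concentration inhibiting growth.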

MIC Enterococcus avium (GC 4558) (Enterococcus sp.; Enterococcus avium (GC 4558)): 32 µg/mL (≈ 40.5 µM)
MIC Enterococcus faecalis (ATCC 29212) (Enterococcus sp.; Enterococcus faecalis (ATCC 29212)): 64 µg/mL (≈ 80.9 µM)
MIC Enterococcus faecalis (GC 4552) (Enterococcus sp.; Enterococcus faecalis (GC 4552)): 64 µg/mL (≈ 80.9 µM)
MIC Enterococcus faecalis (GC 4553) (Enterococcus sp.; Enterococcus faecalis (GC 4553)): 32 µg/mL (≈ 40.5 µM)
MIC Enterococcus faecalis (GC 4554) (Enterococcus sp.; Enterococcus faecalis (GC 4554)): 64 µg/mL (≈ 80.9 µM)
MIC Enterococcus faecalis (GC 6189) (Enterococcus sp.; Enterococcus faecalis (GC 6189)): 64 µg/mL (≈ 80.9 µM)
MIC Enterococcus faecium (GC 2243) (Enterococcus sp.; Enterococcus faecium (GC 2243)): 32 µg/mL (≈ 40.5 µM)
MIC Enterococcus faecium (GC 4556) (Enterococcus sp.; Enterococcus faecium (GC 4556)): 64 µg/mL (≈ 80.9 µM)
MIC Enterococcus faecium (GC 4557) (Enterococcus sp.; Enterococcus faecium (GC 4557)): 8 µg/mL (≈ 10.1 µM)
MIC (Enterococcus sp.; read-out: MIC Enterococcus avium (GC 4558)): 32 µg/mL (≈ 40.5 µM)
MIC (Enterococcus sp.; read-out: MIC Enterococcus faecalis (ATCC 29212)): 64 µg/mL (≈ 80.9 µM)
MIC (Enterococcus sp.; read-out: MIC Enterococcus faecalis (GC 2242)): 64 µg/mL (≈ 80.9 µM)
MIC (Enterococcus sp.; read-out: MIC Enterococcus faecalis (GC 2691)): 64 µg/mL (≈ 80.9 µM)
MIC (Enterococcus sp.; read-out: MIC Enterococcus faecalis (GC 3059)): 64 µg/mL (≈ 80.9 µM)
MIC (Enterococcus sp.; read-out: MIC Enterococcus faecalis (GC 4552)): 64 µg/mL (≈ 80.9 µM)
MIC (Enterococcus sp.; read-out: MIC Enterococcus faecalis (GC 4553)): 32 µg/mL (≈ 40.5 µM)
MIC (Enterococcus sp.; read-out: MIC Enterococcus faecalis (GC 4554)): 64 µg/mL (≈ 80.9 µM)
MIC (Enterococcus sp.; read-out: MIC Enterococcus faecalis (GC 6189)): 64 µg/mL (≈ 80.9 µM)
MIC (Enterococcus sp.; read-out: MIC Enterococcus faecium (GC 2243)): 32 µg/mL (≈ 40.5 µM)
MIC (Enterococcus sp.; read-out: MIC Enterococcus faecium (GC 4556)): 64 µg/mL (≈ 80.9 µM)
MIC (Enterococcus sp.; read-out: MIC Enterococcus faecium (GC 4557)): 8 µg/mL (≈ 10.1 µM)
MIC Enterococcus faecalis (GC 2242) (Enterococcus sp.; strain GC 2242): 64 µg/mL (≈ 80.9 µM)
MIC Enterococcus faecalis (GC 2691) (Enterococcus sp.; strain GC 2691): 64 µg/mL (≈ 80.9 µM)
MIC Enterococcus faecalis (GC 3059) (Enterococcus sp.; strain GC 3059): 64 µg/mL (≈ 80.9 µM)
MIC (Staphylococcus sp.; Staphylococcus, strain GC 4543, read-out: MIC Staphylococcus aureus-SMITH (GC 4543)): 4 µg/mL (≈ 5.06 µM)
MIC (Staphylococcus sp.; Staphylococcus, strain GC 4547, read-out: MIC Coagulase Negative Staphylococcus (GC 4547)): 4 µg/mL (≈ 5.06 µM)
MIC (Staphylococcus sp.; Staphylococcus, strain GC 4548, read-out: MIC Coagulase Negative Staphylococcus (GC 4548)): 4 µg/mL (≈ 5.06 µM)
MIC (Staphylococcus sp.; Staphylococcus, strain GC 4549, read-out: MIC Coagulase Negative Staphylococcus (GC 4549)): 4 µg/mL (≈ 5.06 µM)
MIC (Staphylococcus sp.; Staphylococcus, strain GC 4551, read-out: MIC Coagulase Negative Staphylococcus (GC 4551)): 8 µg/mL (≈ 10.1 µM)
MIC (Staphylococcus sp.; strain ATCC 29213, read-out: MIC Staphylococcus aureus (ATCC 29213)): 16 µg/mL (≈ 20.2 µM)
MIC (Staphylococcus sp.; strain GC 1131, read-out: MIC Staphylococcus aureus (GC 1131)): 8 µg/mL (≈ 10.1 µM)
MIC (Staphylococcus sp.; strain GC 3051, read-out: MIC Staphylococcus aureus (GC 3051)): 16 µg/mL (≈ 20.2 µM)
MIC (Staphylococcus sp.; strain GC 3053, read-out: MIC Staphylococcus aureus (GC 3053)): 32 µg/mL (≈ 40.5 µM)
MIC (Staphylococcus sp.; strain GC 4541, read-out: MIC Staphylococcus aureus (GC 4541)): 16 µg/mL (≈ 20.2 µM)
MIC (Staphylococcus sp.; strain GC 4542, read-out: MIC Staphylococcus aureus (GC 4542)): 16 µg/mL (≈ 20.2 µM)
MIC (Staphylococcus sp.; strain GC 4544, read-out: MIC Staphylococcus aureus (GC 4544)): 16 µg/mL (≈ 20.2 µM)
MIC (Staphylococcus sp.; strain GC 4545, read-out: MIC Staphylococcus aureus (GC 4545)): 8 µg/mL (≈ 10.1 µM)
MIC (Streptococcus sp.; read-out: MIC Streptococcus agalactiae (GC 4564)): 16 µg/mL (≈ 20.2 µM)
MIC (Streptococcus sp.; read-out: MIC Streptococcus pneumoniae (ATCC 6301)): 8 µg/mL (≈ 10.1 µM)
MIC (Streptococcus sp.; read-out: MIC Streptococcus pneumoniae (GC 1894)): 8 µg/mL (≈ 10.1 µM)
MIC (Streptococcus sp.; read-out: MIC Streptococcus pneumoniae (GC 4565)): 16 µg/mL (≈ 20.2 µM)
MIC (Streptococcus sp.; read-out: MIC Streptococcus pyogenes (GC 4563)): 8 µg/mL (≈ 10.1 µM)
MIC Streptococcus pneumoniae (ATCC 6301) (Streptococcus sp.; strain ATCC 6301): 8 µg/mL (≈ 10.1 µM)
MIC Streptococcus pneumoniae (GC 1894) (Streptococcus sp.; strain GC 1894): 8 µg/mL (≈ 10.1 µM)
MIC Streptococcus pyogenes (GC 4563) (Streptococcus sp.; strain GC 4563): 8 µg/mL (≈ 10.1 µM)
MIC Streptococcus agalactiae (GC 4564) (Streptococcus sp.; strain GC 4564): 16 µg/mL (≈ 20.2 µM)
MIC Streptococcus pneumoniae (GC 4565) (Streptococcus sp.; strain GC 4565): 16 µg/mL (≈ 20.2 µM)
MIC (Escherichia coli; Escherichia coli (ATCC 25922), read-out: MIC Escherichia coli (ATCC 25922)): 16 µg/mL (≈ 20.2 µM)
MIC (Escherichia coli; Escherichia coli, read-out: MIC Escherichia coli (GC 4559)): 8 µg/mL (≈ 10.1 µM)
MIC (Escherichia coli; Escherichia coli, read-out: MIC Escherichia coli (GC 4560)): 16 µg/mL (≈ 20.2 µM)
Structure (SMILES): N=C1NCC(C(O)[C@@H]2NC(=O)[C@@H](CC3CCCCC3)NC(=O)[C@H](CC3CCCCC3)NC(=O)CNC(=O)[C@H](CO)NC(=O)[C@@H](C(O)C3CNC(=N)N3)NC2=O)N1 (stereo partly drawn) [Example 58, Cyclo[3-cyclohexylalanyl-3-cyclohexylalanyl-3-(2-iminoimidazolidin-4-yl)seryl-3-(2-iminoimidazolidin-4-yl)-serylserylglycyl]] (cyclo([Cha][dCha][X4][X5]SG))
MIC (Staphylococcus sp.; strain GC 4546, read-out: MIC Staphylococcus haemolyticus (GC 4546)): 4 µg/mL (≈ 5.06 µM)
